Test system: G. duodenalis BRIS/91/HEPU/1279
Experiment: Primary Giardia screen at 10 µM (live-cell imaging, automated counting)
Assay type: cell-based, Giardia duodenalis
Details: for % Inhibition n=1 48h / % Inhibition n=1 24h: first singlicate assay; for % Inhibition n=2 24h / % Inhibition n=2 48h: re-assessment
Method in brief: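 One concentration, 10 μM, is screened per compound in singlicate under microaerophilic gas (3% O2, 5% CO2, N2). Inhibition comes from automated image-based counts at 24 and 48 h, relative to 0.2% DMSO controls.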

Structure (SMILES)	% Inhibition n=1 48h [%]	further results
CC(=O)Nc1cc(C(=O)NCCCN2CCC(C)CC2)ccc1S(=O)(=O)c1ccc(Cl)cc1 [SN00794609]	23.9	–
Cc1nccc2[nH]c(=O)c(C(=O)NCCCN(C)C3CCCCC3)cc12 [SN00794671]	0.0	–
CCOc1ccc(-c2nc(CSCC(=O)N3CCN(c4ccc(Cl)cc4)CC3)c(C)o2)cc1 [SN00794684]	0.0	–
CCN(c1ccccc1)S(=O)(=O)c1ccc2[nH]cc(C(=O)NCCOC)c(=O)c2c1 [SN00794693]	10.4	–
CCOC(=O)c1cc(-c2ccccc2)n(CCC(=O)N2CCn3c2nc2ccccc23)c1C [SN00794728]	10.1	–
Cc1ccc(NS(=O)(=O)c2ccc(-n3cccn3)cc2)cc1 [SN00794732]	6.0	–
O=C(NCc1ccccc1)c1ccc(-c2cc(N3CCOCC3)ncn2)cc1 [SN00794761]	12.2	–
O=C(Nc1cccc(C(=O)N2CCCC2C(=O)NCCc2ccccc2)c1)c1cccs1 (centres unmarked) [SN00794771]	3.7	–
CCNC(=O)C1CCCN1C(=O)c1cccc(NC(=O)c2ccc(Br)cc2)c1 (centres unmarked) [SN00794777]	0.0	–
COc1cc(OC)c(NC(=O)N2CCN(c3nc4ccccc4n3C)CC2)cc1Cl [SN00794807]	0.0	–
O=C(c1csc(-c2ccncc2)n1)N1CCN(c2ccccc2)CC1 [SN00794830]	15.8	–
O=S(=O)(Cc1ccc(Cl)cc1)c1nc2ccccc2nc1N1CCC2(CC1)OCCO2 [SN00794883]	15.2	–
Cc1ccc2c(c1)n(Cc1ccc(Cl)cc1)c(=O)c1nc(C(=O)NCCc3cccs3)nn12 [SN00794982]	29.9	–
Cc1ccc(NC(=O)c2nc3c(=O)n(Cc4ccccc4C)c4cc(C)ccc4n3n2)cc1 [SN00794983]	3.1	–
Cc1ccnc(N2CCCC(C(=O)NC3CCCC3)C2)n1 (centres unmarked) [SN00795015]	10.9	–
Cc1ccnc(N2CCCC(C(=O)N3CC=C(c4ccccc4)CC3)C2)n1 (centres unmarked) [SN00795039]	57.6	Average % Inhibition 24h: 18.0%; % Inhibition n=1 24h: 29.9%; % Inhibition n=2 24h: 6.1%; Average % Inhibition 48h: 46.1%; % Inhibition n=2 48h: 34.6%
Cc1ccc(C2c3cccn3-c3ccccc3CN2C(=O)c2cccnc2)cc1 (centres unmarked) [SN00795042]	0.0	–
Cc1ccc(-c2cc3nc(C)cc(N4CCC(C(=O)NCCCN5CCCC5)CC4)n3n2)cc1 [SN00795048]	16.1	–
Cc1cc(N2CCC(C(=O)N3CCN(c4ccc(F)cc4)CC3)CC2)n2nc(-c3ccccc3)cc2n1 [SN00795072]	0.0	–
O=S(=O)(c1ccc(-c2cnc(C3CCC3)o2)s1)N1CCC2(CC1)OCCO2 [SN00795093]	7.0	–
O=S(=O)(NCCC1=CCCCC1)c1ccc(-c2cnc(C3CCCC3)o2)s1 [SN00795100]	27.9	–
CCOc1ccc(N/C(=N\S(C)(=O)=O)Nc2cc(C)c(Cl)cc2OC)cc1 [SN00795110]	18.1	–
COc1ccc(CC(=O)N2CCN(Cc3nc4cc(C(=O)N5CCCC5)ccc4n3C)CC2)cc1 [SN00795130]	13.8	–

Structure (SMILES)	% Inhibition n=1 48h [%]	further results
CCCNS(=O)(=O)c1cc(-c2nc(-c3cccc(Cl)c3)cs2)n(C)c1C [SN00795169]	47.2	Average % Inhibition 24h: 21.9%; % Inhibition n=1 24h: 31.8%; % Inhibition n=2 24h: 12.0%; Average % Inhibition 48h: 32.8%; % Inhibition n=2 48h: 18.5%
Cc1csc(-c2cc(S(=O)(=O)N3c4ccccc4CC3C)c(C)n2C)n1 (centres unmarked) [SN00795179]	71.5	Average % Inhibition 24h: 22.6%; % Inhibition n=1 24h: 34.1%; % Inhibition n=2 24h: 11.1%; Average % Inhibition 48h: 63.7%; % Inhibition n=2 48h: 55.8%
Cc1ccc2oc(-c3noc(C(=O)NCC4CCCO4)n3)c(C)c2c1 (centres unmarked) [SN00795207]	0.0	–
COc1ccc2oc(-c3noc(C(=O)NCCN4CCCCCC4)n3)c(C)c2c1 [SN00795214]	52.1	Average % Inhibition 24h: 11.6%; % Inhibition n=1 24h: 16.8%; % Inhibition n=2 24h: 6.3%; Average % Inhibition 48h: 56.6%; % Inhibition n=2 48h: 61.1%
Cc1ccc(S(=O)(=O)NC2CCN(C(=O)Cc3ccc(Br)cc3)CC2)cc1 [SN00795227]	3.1	–
O=C(c1ccco1)N1CCC(NS(=O)(=O)c2ccc(Cl)cc2)CC1 [SN00795232]	0.0	–
Cc1cccc(-c2nc(-c3ccc(NS(C)(=O)=O)cc3)no2)c1 [SN00795250]	9.2	–
COc1ccc(-c2c(C(=O)Nc3cccc(Cl)c3)nn3c(C)cc(=O)[nH]c23)cc1 [SN00795279]	7.0	–
Cc1cccc(-c2nc3sc(N4CCN(C(=O)NC(C)C)CC4)nn3c2NC(C)(C)C)c1 [SN00795313]	0.0	–
Cc1ccccc1C(=O)Nc1cnc(N2CCNCC2)c(C(=O)N(C)Cc2ccccc2)c1 [SN00795318]	15.2	–
Cc1cccc(C(=O)Nc2cnc(N3CCNCC3)c(C(=O)N(CC(C)C)CC(C)C)c2)c1 [SN00795320]	14.5	–
COCCNc1c(-c2ccc(O)cc2)nc2sc3cc(C)ccc3n12 [SN00795351]	0.0	–
CCOc1ccc(-c2nc3sc4cc(C)ccc4n3c2NCCOC)cc1 [SN00795352]	0.0	–
Cc1ccc(S(=O)(=O)N2CCN(C)c3ccccc32)cc1 [SN00795395]	8.6	–
Cc1cccc(NC(=O)Nc2cc(F)c3[nH]c(=O)ccc3c2)c1C [SN00795412]	0.0	–
CCOC(=O)CC(NC(=O)Nc1cc(F)c2[nH]c(=O)ccc2c1)c1ccccc1 (centres unmarked) [SN00795424]	4.9	–
Cc1ccc(C)c(S(=O)(=O)Nc2ccc3nnc(-c4ccccc4)n3n2)c1 [SN00795461]	0.0	–
O=C(NC1CC1)c1cnn2c(-c3ccccn3)ccnc12 [SN00795482]	0.0	–
Cc1nc2c(c(=O)n1CC(=O)Nc1cccc(F)c1)CCN(Cc1ccccc1)C2 [SN00795483]	0.0	–
CCOC(=O)N1CCc2c(nc(-c3ccc(C)cc3)n(CC(=O)Nc3ccc(Cl)cc3)c2=O)C1 [SN00795497]	41.5	–
CNC(=O)Nc1ccc(C2(C(=O)Nc3ccc(F)c(C)c3)CCC2)cc1 [SN00795530]	0.0	–
O=C(CCC(=O)N1CCCN(c2nc3cccnc3s2)CC1)NCCc1c[nH]c2ccccc12 [SN00795593]	0.0	–

From PMC9775191, “A Subset Screen of the Compounds Australia Scaffold Library Identifies 7-Acylaminodibenzoxazepinones as Potent and Selective Hits for Anti-Giardia Drug Discovery” (Biomedicines, 2022)
